Consider 36 molecules from patent US20050197350A1, “Novel quinoline, tetrahydroquinazoline, and pyrimidine derivatives and methods of treatment related to the use thereof” (TAISHO PHARMACEUTICAL CO., LTD., priority 2003, published 2005).

The assay concerns MCH receptors. Nature of the assay: MCH receptor activity class (method not given).
The mark [1] stands for this setting: class by percent of control at 10^−7 M or IC50.
The mark [2] stands for this setting: MCH receptor, class by percent of control at 10^-7 M or IC50.
Setting [3] is: class 1-3 by percent of control at 10^-7 M or IC50.
Setting [4] is: activity class 1-3: percent of control at 10^-7 M or IC50.
[5] abbreviates: class by percent of control at 10^-7 M or IC50.
Where [6] appears, read: MCH receptor activity class 1-3 (percent of control at 10^-7 M or IC50).

Each structure is given as a SMILES string. Read-outs that look alike come from different tables or passages of the source.

As to `CSc1ccccc1NC(=O)[C@H]1CC[C@@H](Nc2ncc(C)c(N(C)C)n2)CC1` [compound 2792], the class under setting [1] is reported as 2 (Class 2: The value of percent of control at 10^−7 M was from 40% to 60% or the value of IC′50 was from 50 nM to 200 nM.). For `CN(C)c1nc(N[C@H]2CC[C@@H](NC(=S)Nc3c(F)cc(F)cc3F)CC2)nc2c1CCCC2` [compound 2001], the class under setting [2] is 3 (Class 3 The value of percent of control at 10^−7 M was more than 60% or the value of IC50 was more than 200 nM.).

As to `CN(C)c1nc(N[C@H]2CC[C@@H](NC(=O)Cc3ccccc3C(=O)Nc3ccc(Cl)cc3Cl)CC2)nc2c1CCCC2` [compound 999], the class (activity class per percent of control at 10^-7 M or IC50) was 3 (Class 3 The value of percent of control at 10^−7 M was more than 60% or the value of IC50 was more than 200 nM.). Consider `CN(C)c1nc(NC2CCC(NC(=O)OCc3ccc([N+](=O)[O-])cc3)CC2)nc2c1CCCC2` (stereo not drawn) [compound 492], for which, under setting [3], the class was 3 (Class 3 The value of percent of control at 10^−7 M was more than 60% or the value of IC50 was more than 200 nM.). For the molecule `COc1cccc(C(=O)N[C@H]2CC[C@@H](Nc3ncc(C)c(N(C)C)n3)CC2)c1` [Example 2563, N-(cis-4-{[4-(dimethylamino)-5-methylpyrimidin-2-yl]amino}cyclohexyl)-3-methoxybenzamide], the class worked out at 1. On to `CN(C)c1ccnc(N[C@H]2CC[C@@H](NCCOc3ccccc3Cl)CC2)n1` [compound 1515], for which the class under setting [4] is given as 3 (Class 3 The value of percent of control at 10^−7 M was more than 60% or the value of IC50 was more than 200 nM.).

In the case of `CN(C)c1nc(N[C@H]2CC[C@@H](NC(=S)Nc3ccccc3-c3ccccc3)CC2)nc2c1CCCC2` [compound 1770], under setting [5], the class is recorded as 3 (Class 3 The value of percent of control at 10^−7 M was more than 60% or the value of IC50 was more than 200 nM.). As to `CN(C)c1cc(N[C@H]2CC[C@@H](NC(=O)c3ccccc3OC(F)(F)F)CC2)nc2ccccc12` [compound 118], under setting [2], the class is on record as 3 (Class 3 The value of percent of control at 10^−7 M was more than 60% or the value of IC50 was more than 200 nM.). `CN(C)c1cc(N[C@H]2CC[C@@H](NC(=O)Cc3c(-c4ccccc4)[nH]c4ccccc34)CC2)nc2ccccc12` [compound 729, N-(cis-4-{[4-(dimethylamino)quinolin-2-yl]amino}cyclohexyl)-2-(2-phenyl-1H-indol-3-yl)acetamide]: the class under setting [5] is 2 (Class 2: The value of percent of control at 10^−7 M was from 40% to 60% or the value of IC′50 was from 50 nM to 200 nM.).

As for `CN(C)c1nc(N[C@H]2CC[C@@H](NC(=O)/C=C/c3ccccc3)CC2)nc2c1CCCC2` [compound 462], under setting [3], the class is reported as 3 (Class 3 The value of percent of control at 10^−7 M was more than 60% or the value of IC50 was more than 200 nM.). Take `CN(C)c1nc(N[C@H]2CC[C@@H](NC(=S)Nc3ccc(F)cc3F)CC2)nc2c1CCCC2` [compound 1972]: under setting [2], the class is 3 (Class 3 The value of percent of control at 10^−7 M was more than 60% or the value of IC50 was more than 200 nM.). Still for that read-out and setting: then `CN(C)c1nc(N[C@H]2CC[C@@H](NC(=S)Nc3cccc(I)c3)CC2)nc2c1CCCC2` [compound 1985], with 3 (Class 3 The value of percent of control at 10^−7 M was more than 60% or the value of IC50 was more than 200 nM.). Consider `CN(C)c1nc(N[C@H]2CC[C@@H](NC(=O)Cc3ccc(F)cc3)CC2)nc2c1CCCC2` [compound 504], for which the class under setting [3] is 1 (Class 1: The value of percent of control at 10^−7 M was less than 40% or the value of IC50 was less than 50 nM.). As for `CN(C)c1nc(N[C@H]2CC[C@@H](NC(=S)NC3CCCCCCCCCCC3)CC2)nc2c1CCCC2` [compound 2026], the class under setting [2] is 3 (Class 3 The value of percent of control at 10^−7 M was more than 60% or the value of IC50 was more than 200 nM.). As for `CN(C)c1ccnc(N[C@H]2CC[C@@H](NC(=O)c3ccccc3)CC2)n1` [compound 311, N-(cis-4-{[4-(dimethylamino)pyrimidin-2-yl]amino}cyclohexyl)benzamide], under setting [5], the class is recorded as 3 (Class 3 The value of percent of control at 10^−7 M was more than 60% or the value of IC50 was more than 200 nM.). Turning to `CN(C)c1ccnc(N[C@H]2CC[C@@H](CNC(=O)c3c(F)cccc3Cl)CC2)n1` [compound 450], under setting [3], the class is recorded as 3 (Class 3 The value of percent of control at 10^−7 M was more than 60% or the value of IC50 was more than 200 nM.). As to `Cc1cnc(N[C@H]2CC[C@@H](CNC(=O)c3ccc(C(F)(F)F)c(F)c3)CC2)nc1N(C)C` [compound 2705, N-[(cis-4-{[4-(dimethylamino)-5-methylpyrimidin-2-yl]amino}cyclohexyl)methyl]-3-fluoro-4-(trifluoromethyl)benzamide], the class under setting [1] was 2 (Class 2: The value of percent of control at 10^−7 M was from 40% to 60% or the value of IC′50 was from 50 nM to 200 nM.).

On to `CCCc1ccccc1NC(=O)N[C@H]1CC[C@@H](Nc2nc3c(c(N(C)C)n2)CCCC3)CC1` [compound 1682], for which the class under setting [4] is reported as 3 (Class 3 The value of percent of control at 10^−7 M was more than 60% or the value of IC50 was more than 200 nM.). Turning to `CCOc1ccc(NC(=S)N[C@H]2CC[C@@H](Nc3nc4c(c(N(C)C)n3)CCCC4)CC2)cc1` [compound 1939], under setting [2], the class was 3 (Class 3 The value of percent of control at 10^−7 M was more than 60% or the value of IC50 was more than 200 nM.).

As to `Cc1cccc([N+](=O)[O-])c1NC(=O)NC[C@H]1CC[C@@H](Nc2nccc(N(C)C)n2)CC1` [compound 2447, N-[(cis-4-{[4-(dimethylamino)pyrimidin-2-yl]amino}cyclohexyl)methyl]-N′-(2-methyl-6-nitrophenyl)urea], the class under setting [6] was 2 (Class 2: The value of percent of control at 10^−7 M was from 40% to 60% or the value of IC′50 was from 50 nM to 200 nM.). For `CN(C)c1ccnc(N[C@H]2CC[C@@H](CNC(=O)c3cccc(F)c3F)CC2)n1` [compound 446], the class under setting [3] is listed as 3 (Class 3 The value of percent of control at 10^−7 M was more than 60% or the value of IC50 was more than 200 nM.).

For the molecule `CC(C)[C@@H]1CC[C@@H](C)C[C@H]1OC(=O)NC[C@H]1CC[C@@H](Nc2cc(N(C)C)c3ccccc3n2)CC1` [compound 1573], under setting [4], the class is listed as 3 (Class 3 The value of percent of control at 10^−7 M was more than 60% or the value of IC50 was more than 200 nM.). With `CN(C)c1ccnc(N[C@H]2CC[C@@H](CNC(=O)Cc3ccc(F)cc3Cl)CC2)n1` [compound 927], under setting [5], the class is 3 (Class 3 The value of percent of control at 10^−7 M was more than 60% or the value of IC50 was more than 200 nM.). For the molecule `CCOc1ncccc1C(=O)N[C@H]1CC[C@@H](Nc2nc(C)c(C)c(N(C)C)n2)CC1` [compound 2834], the class under setting [1] is on record as 3 (Class 3 The value of percent of control at 10^−7 M was more than 60% or the value of IC50 was more than 200 nM.). As for `CN(C)c1nc(N[C@H]2CC[C@@H](CNCc3cc(C(F)(F)F)ccc3F)CC2)nc2c1CCCC2` [compound 1395], under setting [5], the class was 3 (Class 3 The value of percent of control at 10^−7 M was more than 60% or the value of IC50 was more than 200 nM.). The same measure, in the same setting: next, `CN(C)c1cc(N[C@H]2CC[C@@H](NC(=S)Nc3ccc(Cl)cc3Cl)CC2)nc2ccccc12` [compound 2169]: 3 (Class 3 The value of percent of control at 10^−7 M was more than 60% or the value of IC50 was more than 200 nM.). On to `COc1ccc(OC)c(NC(=S)N[C@H]2CC[C@@H](Nc3nc4c(c(N(C)C)n3)CCCC4)CC2)c1` [compound 1973], for which, under setting [2], the class is listed as 3 (Class 3 The value of percent of control at 10^−7 M was more than 60% or the value of IC50 was more than 200 nM.).

As for `CSc1ccc(NC(=O)N[C@H]2CC[C@@H](Nc3nccc(N(C)C)n3)CC2)cc1` [compound 2185], the class under setting [5] is reported as 3 (Class 3 The value of percent of control at 10^−7 M was more than 60% or the value of IC50 was more than 200 nM.). With `CN(C)c1ccnc(N[C@H]2CC[C@@H](CNC(=O)Nc3c(Br)cc(F)cc3Br)CC2)n1` [compound 2444, N-(2,6-dibromo-4-fluorophenyl)-N′-[(cis-4-{[4-(dimethylamino)pyrimidin-2-yl]amino}cyclohexyl)methyl]urea], under setting [6], the class was 1 (Class 1: The value of percent of control at 10^−7 M was less than 40% or the value of IC50 was less than 50 nM.). In the case of `CN(C)c1cc(N[C@H]2CC[C@@H](NC(=O)Nc3ccccc3Cl)CC2)nc2ccccc12` [compound 2089], the class under setting [5] is reported as 2 (Class 2: The value of percent of control at 10^−7 M was from 40% to 60% or the value of IC′50 was from 50 nM to 200 nM.). Same read-out and setting: then `CCc1ccccc1NC(=O)N[C@H]1CC[C@@H](Nc2nccc(N(C)C)n2)CC1` [compound 2197], with 3 (Class 3 The value of percent of control at 10^−7 M was more than 60% or the value of IC50 was more than 200 nM.).

`CCOC(=O)[C@H](CC(C)C)NC(=O)N[C@H]1CC[C@@H](Nc2nccc(N(C)C)n2)CC1` (relative stereo) [compound 2183]: the class under setting [5] is reported as 3 (Class 3 The value of percent of control at 10^−7 M was more than 60% or the value of IC50 was more than 200 nM.).

`COc1ccc(CN[C@H]2CC[C@@H](Nc3nccc(N(C)C)n3)CC2)c(OC)c1OC` [compound 1215]: under setting [5], the class was 3 (Class 3 The value of percent of control at 10^−7 M was more than 60% or the value of IC50 was more than 200 nM.). Still for that read-out and setting: next, `CN(C)c1nc(N[C@H]2CC[C@@H](CNC(=O)c3cccc(Cl)c3F)CC2)nc2c1CCCC2` [compound 621]: 3 (Class 3 The value of percent of control at 10^−7 M was more than 60% or the value of IC50 was more than 200 nM.). Regarding `CCCCCNC(=O)N[C@H]1CC[C@@H](Nc2cc(N(C)C)c3ccccc3n2)CC1` [compound 2133], the class under setting [5] is recorded as 3 (Class 3 The value of percent of control at 10^−7 M was more than 60% or the value of IC50 was more than 200 nM.). For `CN(C)c1cc(N[C@H]2CC[C@@H](NC(=O)Nc3ccccc3[N+](=O)[O-])CC2)nc2ccccc12` [compound 2147], the class under setting [5] is recorded as 3 (Class 3 The value of percent of control at 10^−7 M was more than 60% or the value of IC50 was more than 200 nM.).
